Patent US12599136B2, “Substituted isophthalic acid diamides and their use as herbicides” (Bayer Aktiengesellschaft, priority 2020, dated 2026)

Tests used:
Assay type in all cases: in vivo
Amaranthus retroflexus [1] = experiment: Pre-emergence herbicidal action against AMARE; details: for Pre-emergence action against AMARE: visual score after 3 weeks vs untreated controls; for Herbicidal action against AMARE: comparative experiment, pre-emergence
Summary of the method: (§1)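 Pre-emergence soil-surface spray of formulated compound (WP or EC; 600 to 800 l/ha; 0.2% wetting agent) over seeds sown in sandy loam. After 3 weeks under greenhouse conditions, damage is estimated visually in percent against untreated plants.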

Alopecurus myosuroides [2] = experiment: Pre-emergence herbicidal action against ALOMY; details: for Pre-emergence action against ALOMY: visual score after 3 weeks vs untreated controls
Summary of the method: as §1

Hordeum murinum [3] = experiment: Post-emergence herbicidal action against HORMU
Summary of the method: (§2)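 Greenhouse plants in sandy loam were sprayed at the one-leaf stage, 2 to 3 weeks after sowing, with WP or EC formulations as aqueous suspension or emulsion (600 to 800 l/ha water, 0.2% wetting agent). Visual damage was scored about 3 weeks later versus untreated controls, 0% = like control, 100% = dead.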

Cyperus esculentus [4] = experiment: Pre-emergence herbicidal action against CYPES; details: for Pre-emergence action against CYPES: visual score after 3 weeks vs untreated controls; for Herbicidal action against CYPES: comparative experiment, pre-emergence
Summary of the method: as §1

Abutilon theophrasti [5] = experiment: Post-emergence herbicidal action against ABUTH
Summary of the method: as §2

Cyperus esculentus [6] = experiment: Post-emergence herbicidal action against CYPES; details: visual assessment about 3 weeks after treatment
Method: (§3) Seeds of monocotyledonous and dicotyledonous weed and crop plants are laid out in sandy loam soil in wood-fiber pots, covered with soil and cultivated in a greenhouse under good growth conditions. 2 to 3 weeks after sowing, the test plants are treated at the one-leaf stage. The compounds of the invention, formulated in the form of wettable powders (WP) or as emulsion concentrates (EC), are then sprayed onto the green parts of the plants in the form of an aqueous suspension or emulsion at a water application rate equivalent to 600 to 800 l/ha, with addition of 0.2% wetting agent. After the test plants have been left to stand in the greenhouse under optimal growth conditions for about 3 weeks, the action of the preparations is assessed visually in comparison to untreated controls (herbicidal action in percent (%): 100% activity=the plants have died, 0% activity=like control plants). […] The tables below illustrate, in an illustrative manner, the post-emergence herbicidal action of the compounds of the invention, the herbicidal activity being stated in percent.

Alopecurus myosuroides [7] = experiment: Post-emergence herbicidal action against ALOMY
Summary of the method: as §2

Stellaria media [8] = experiment: Pre-emergence herbicidal action against STEME
Summary of the method: as §1

Pharbitis purpurea = experiment: Post-emergence herbicidal action against PHBPU; details: 80 g/ha, visual assessment about 3 weeks after treatment
Summary of the method: as §2

Viola tricolor [9] = experiment: Post-emergence herbicidal action against VIOTR
Summary of the method: as §2

Amaranthus retroflexus [10] = experiment: Post-emergence herbicidal action against AMARE; details: visual assessment about 3 weeks after treatment
Summary of the method: as §2

Stellaria media [11] = experiment: Post-emergence herbicidal action against STEME; details: for Post-emergence action against STEME in %: visual assessment about 3 weeks after treatment
Summary of the method: as §2

Polygonum convolvulus [12] = experiment: Post-emergence herbicidal action against POLCO; details: 80 g/ha, visual assessment about 3 weeks after treatment
Summary of the method: as §2

Avena fatua [13] = experiment: Pre-emergence herbicidal action against AVEFA; details: for Pre-emergence action against AVEFA: visual score after 3 weeks vs untreated controls
Summary of the method: as §1

Abutilon theophrasti [14] = experiment: Pre-emergence herbicidal action against ABUTH; details: for Pre-emergence action against ABUTH: visual score after 3 weeks vs untreated controls
Summary of the method: as §1

Matricaria inodora [15] = experiment: Post-emergence herbicidal action against MATIN; details: for Post-emergence action against MATIN in %: visual assessment about 3 weeks after treatment
Summary of the method: as §2

Viola tricolor [16] = experiment: Pre-emergence herbicidal action against VIOTR; details: 320 g/ha
Summary of the method: as §1

Echinochloa crus-galli [17] = experiment: Pre-emergence herbicidal action against ECHCG; details: for Pre-emergence action against ECHCG: visual score after 3 weeks vs untreated controls; for Herbicidal action against ECHCG: comparative experiment, pre-emergence
Summary of the method: as §1

Polygonum convolvulus [18] = experiment: Pre-emergence herbicidal action against POLCO; details: 320 g/ha
Summary of the method: as §1

Echinochloa crus-galli [19] = experiment: Post-emergence herbicidal action against ECHCG; details: visual assessment about 3 weeks after treatment
Summary of the method: as §2

Setaria viridis [20] = experiment: Pre-emergence herbicidal action against SETVI; details: for Herbicidal action against SETVI: comparative experiment
Summary of the method: as §1

Hordeum murinum [21] = experiment: Pre-emergence herbicidal action against HORMU; details: visual score after 3 weeks vs untreated controls
Summary of the method: as §1

Lolium rigidum [22] = experiment: Pre-emergence herbicidal action against LOLRI
Summary of the method: as §1

Veronica persica [23] = experiment: Post-emergence herbicidal action against VERPE; details: visual assessment about 3 weeks after treatment
Summary of the method: as §2

Lolium rigidum [24] = experiment: Post-emergence herbicidal action against LOLRI
Method: as §3

Matricaria inodora [25] = experiment: Pre-emergence herbicidal action against MATIN; details: for Pre-emergence action against MATIN: visual score after 3 weeks vs untreated controls
Summary of the method: as §1

Veronica persica [26] = experiment: Pre-emergence herbicidal action against VERPE
Summary of the method: as §1

Avena fatua [27] = experiment: Post-emergence herbicidal action against AVEFA; details: for Post-emergence action against AVEFA in %: visual assessment about 3 weeks after treatment
Summary of the method: as §2

Setaria viridis [28] = experiment: Post-emergence herbicidal action against SETVI; details: for Post-emergence action against SETVI in %: visual assessment about 3 weeks after treatment
Summary of the method: as §2

[29] = comparative experiment, pre-emergence, 20 g a.i./ha
[30] = comparative experiment, 5 g a.i./ha
[31] = comparative experiment, pre-emergence, 80 g a.i./ha

CN(C)C(=O)c1c(C(F)(F)F)ccc(C(=O)Nc2nnnn2C)c1Cl [Example 1-123]
Pre-emergence action against AMARE (Amaranthus retroflexus [1]; 20 g/ha): 90% | Pre-emergence action against AMARE (Amaranthus retroflexus [1]; 80 g/ha): 100% | Pre-emergence action against AMARE (Amaranthus retroflexus [1]; 320 g/ha): 100% | Herbicidal action against AMARE (Amaranthus retroflexus [1]; 20 g a.i./ha): 90 | Herbicidal action against AMARE (Amaranthus retroflexus [1]; 80 g a.i./ha): 100 | Pre-emergence action against ALOMY (Alopecurus myosuroides [2]; 80 g/ha): 80% | Pre-emergence action against ALOMY (Alopecurus myosuroides [2]; 320 g/ha): 100% | Herbicidal action against ALOMY (Alopecurus myosuroides [2]; [29]): 70 | Post-emergence action against HORMU in % (Hordeum murinum [3]; 5 g/ha): 80% | Post-emergence action against HORMU in % (Hordeum murinum [3]; 20 g/ha): 80% | Post-emergence action against HORMU in % (Hordeum murinum [3]; 80 g/ha): 100% | Pre-emergence action against CYPES (Cyperus esculentus [4]; 20 g/ha): 80% | Pre-emergence action against CYPES (Cyperus esculentus [4]; 80 g/ha): 100% | Pre-emergence action against CYPES (Cyperus esculentus [4]; 320 g/ha): 100% | Herbicidal action against CYPES (Cyperus esculentus [4]; 20 g a.i./ha): 80 | Herbicidal action against CYPES (Cyperus esculentus [4]; 80 g a.i./ha): 100 | Post-emergence action against ABUTH (Abutilon theophrasti [5]; 5 g/ha): 100% | Post-emergence action against ABUTH (Abutilon theophrasti [5]; 20 g/ha): 100% | Post-emergence action against ABUTH (Abutilon theophrasti [5]; 80 g/ha): 100% | Herbicidal action against ABUTH (Abutilon theophrasti [5]; [30]): 100 | Post-emergence action against CYPES in % (Cyperus esculentus [6]; 5 g/ha): 80% | Post-emergence action against CYPES in % (Cyperus esculentus [6]; 20 g/ha): 90% | Post-emergence action against CYPES in % (Cyperus esculentus [6]; 80 g/ha): 90% | Post-emergence action against ALOMY (Alopecurus myosuroides [7]; 5 g/ha): 100% | Post-emergence action against ALOMY (Alopecurus myosuroides [7]; 20 g/ha): 100% | Post-emergence action against ALOMY (Alopecurus myosuroides [7]; 80 g/ha): 100% | Herbicidal action against ALOMY (Alopecurus myosuroides [7]; [30]): 100 | Pre-emergence action against STEME (Stellaria media [8]; 20 g/ha): 90% | Pre-emergence action against STEME (Stellaria media [8]; 80 g/ha): 90% | Pre-emergence action against STEME (Stellaria media [8]; 320 g/ha): 90% | Post-emergence action against PHBPU in % (Pharbitis purpurea): 100% | Post-emergence action against VIOTR in % (Viola tricolor [9]; 5 g/ha): 80% | Post-emergence action against VIOTR in % (Viola tricolor [9]; 20 g/ha): 100% | Post-emergence action against VIOTR in % (Viola tricolor [9]; 80 g/ha): 100% | Post-emergence action against AMARE in % (Amaranthus retroflexus [10]; 5 g/ha): 100% | Post-emergence action against AMARE in % (Amaranthus retroflexus [10]; 20 g/ha): 100% | Post-emergence action against AMARE in % (Amaranthus retroflexus [10]; 80 g/ha): 100% | Post-emergence action against STEME in % (Stellaria media [11]; 5 g/ha): 100% | Post-emergence action against STEME in % (Stellaria media [11]; 20 g/ha): 100% | Post-emergence action against STEME in % (Stellaria media [11]; 80 g/ha): 100% | Herbicidal action against STEME (Stellaria media [11]; [30]): 100 | Post-emergence action against POLCO in % (Polygonum convolvulus [12]): 90% | Pre-emergence action against AVEFA (Avena fatua [13]; 80 g/ha): 90% | Pre-emergence action against AVEFA (Avena fatua [13]; 320 g/ha): 100% | Herbicidal action against AVEFA (Avena fatua [13]; [31]): 90 | Pre-emergence action against ABUTH (Abutilon theophrasti [14]; 20 g/ha): 80% | Pre-emergence action against ABUTH (Abutilon theophrasti [14]; 80 g/ha): 100% | Pre-emergence action against ABUTH (Abutilon theophrasti [14]; Dosage column 320 g/ha (heading prints 3200 g/ha)): 100% | Herbicidal action against ABUTH (Abutilon theophrasti [14]; [31]): 100 | Post-emergence action against MATIN in % (Matricaria inodora [15]; 5 g/ha): 80% | Post-emergence action against MATIN in % (Matricaria inodora [15]; 20 g/ha): 80% | Post-emergence action against MATIN in % (Matricaria inodora [15]; 80 g/ha): 100% | Herbicidal action against MATIN (Matricaria inodora [15]; [30]): 80 | Pre-emergence action against VIOTR (Viola tricolor [16]): 90% | Pre-emergence action against ECHCG (Echinochloa crus-galli [17]; 20 g/ha): 90% | Pre-emergence action against ECHCG (Echinochloa crus-galli [17]; 80 g/ha): 100% | Pre-emergence action against ECHCG (Echinochloa crus-galli [17]; 320 g/ha): 100% | Herbicidal action against ECHCG (Echinochloa crus-galli [17]; 20 g a.i./ha): 90 | Herbicidal action against ECHCG (Echinochloa crus-galli [17]; 80 g a.i./ha): 100 | Pre-emergence action against POLCO (Polygonum convolvulus [18]): 90% | Post-emergence action against ECHCG in % (Echinochloa crus-galli [19]; 5 g/ha): 100% | Post-emergence action against ECHCG in % (Echinochloa crus-galli [19]; 20 g/ha): 100% | Post-emergence action against ECHCG in % (Echinochloa crus-galli [19]; 80 g/ha): 100% | Pre-emergence action against SETVI (Setaria viridis [20]; 20 g/ha): 90% | Pre-emergence action against SETVI (Setaria viridis [20]; 80 g/ha): 100% | Pre-emergence action against SETVI (Setaria viridis [20]; 320 g/ha): 100% | Herbicidal action against SETVI (Setaria viridis [20]; 20 g a.i./ha): 90 | Herbicidal action against SETVI (Setaria viridis [20]; 80 g a.i./ha): 100 | Pre-emergence action against HORMU (Hordeum murinum [21]; 80 g/ha): 90% | Pre-emergence action against HORMU (Hordeum murinum [21]; 320 g/ha): 100% | Pre-emergence action against LOLRI (Lolium rigidum [22]; 80 g/ha): 80% | Pre-emergence action against LOLRI (Lolium rigidum [22]; 320 g/ha): 100% | Post-emergence action against VERPE in % (Veronica persica [23]; 5 g/ha): 80% | Post-emergence action against VERPE in % (Veronica persica [23]; 20 g/ha): 80% | Post-emergence action against VERPE in % (Veronica persica [23]; 80 g/ha): 100% | Post-emergence action against LOLRI in % (Lolium rigidum [24]; 20 g/ha): 80% | Post-emergence action against LOLRI in % (Lolium rigidum [24]; 80 g/ha): 90% | Pre-emergence action against MATIN (Matricaria inodora [25]; 80 g/ha): 90% | Pre-emergence action against MATIN (Matricaria inodora [25]; 320 g/ha): 90% | Herbicidal action against MATIN (Matricaria inodora [25]; [29]): 70 | Pre-emergence action against VERPE (Veronica persica [26]; 80 g/ha): 80% | Pre-emergence action against VERPE (Veronica persica [26]; 320 g/ha): 90% | Post-emergence action against AVEFA in % (Avena fatua [27]; 5 g/ha): 80% | Post-emergence action against AVEFA in % (Avena fatua [27]; 20 g/ha): 90% | Post-emergence action against AVEFA in % (Avena fatua [27]; 80 g/ha): 100% | Herbicidal action against AVEFA (Avena fatua [27]; [30]): 80 | Post-emergence action against SETVI in % (Setaria viridis [28]; 5 g/ha): 100% | Post-emergence action against SETVI in % (Setaria viridis [28]; 20 g/ha): 100% | Post-emergence action against SETVI in % (Setaria viridis [28]; 80 g/ha): 100% | Herbicidal action against SETVI (Setaria viridis [28]; [30]): 100
